Measurements: US8569336B2, “Compounds for the treatment of inflammatory disorders” (priority 2008, dated 2013)

Molecular target: T1, purified catalytic domain of recombinant human TACE (rhTACEc) (Homo sapiens, UniProt P78536, N452Q/S266A)
T1 construct: 6xHis (C); made in house; host or cells: baculovirus/Hi5 insect cells
Test: TACE kinetic assay: cleavage of internally quenched peptide substrate TNF-FRET 2 (Ki)
Format: biochemical
Conditions: Ki, TNF-FRET 2 substrate

T1 sequence (P78536 215-477 S266A/N452Q): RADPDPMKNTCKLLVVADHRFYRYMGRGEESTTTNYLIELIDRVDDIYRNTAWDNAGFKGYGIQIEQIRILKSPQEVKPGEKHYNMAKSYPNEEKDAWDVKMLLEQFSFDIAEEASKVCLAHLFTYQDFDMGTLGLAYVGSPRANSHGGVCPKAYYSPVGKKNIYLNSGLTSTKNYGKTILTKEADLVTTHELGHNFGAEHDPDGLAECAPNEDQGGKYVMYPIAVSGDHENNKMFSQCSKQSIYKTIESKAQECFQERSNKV

SMILES | Ki
COc1ccc2c(c1)C(=O)N(CC1(c3cc4cc(-c5cc(=O)[nH]c(N)n5)ccc4o3)NC(=O)NC1=O)C2 (stereo not shown) [Compound 2224] | 0.000313 µM
COc1ccc2c(c1)C(=O)N(C[C@@]1(c3cc4c(o3)CCN(CC(N)=O)C4)NC(=O)NC1=O)C2 [Compound 2483] | 0.0007 µM
COc1ccc2c(c1)C(=O)N(C[C@@]1(c3cc4ncc(C(N)=O)cc4o3)NC(=O)NC1=O)C2 [Compound 2459] | 0.000367 µM
COc1ccc2c(c1)C(=O)N(C[C@@]1(c3cc4ncc(C(N)=O)cc4o3)NC(=O)NC1=O)C2 [Compound 1929] | 0.00037 µM

Same assay, conditions: TNF-FRET 2 substrate, read-out: Ki

SMILES | Ki
COc1ccc2c(c1F)C(=O)N(C[C@@]1(c3cc4nc(N(c5cn[nH]c5)C5CCNCC5)ccc4o3)NC(=O)NC1=O)C2 [Compound 1724] | 0.00131 µM
COc1ccc2c(c1)C(=O)N(C[C@@]1(c3cc4c(o3)CCN(C(=O)Nc3cccnc3)C4)NC(=O)NC1=O)C2 [Compound 321] | 0.701 µM
COc1ccc2c(c1)C(=O)N(C[C@@]1(c3cc4cc(C(N)C(F)(F)F)ccc4o3)NC(=O)NC1=O)C2 (stereo partly shown) [Compound 311] | 0.000594 µM
COc1ccc2c(c1F)C(=O)N(C[C@@]1(c3cc4nc(-c5cn[nH]c5)ccc4o3)NC(=O)NC1=O)C2 [Compound 2121] | 0.000263 µM
COC(=O)[C@H](CCCCNC(=O)c1cc2cc([C@]3(CN4Cc5ccc(OC)cc5C4=O)NC(=O)NC3=O)oc2cc1F)NC(=O)CCCC[C@@H]1SCC2NC(=O)NC21 (stereo partly shown) [Compound 1282] | 0.00048 µM
COc1ccc2c(c1F)C(=O)N(C[C@@]1(c3ccco3)NC(=O)NC1=O)C2 [Compound 313] | 0.000736 µM
COc1ccc2c(c1F)C(=O)N(C[C@@]1(c3cc4nc(C(N)=O)ccc4o3)NC(=O)NC1=O)C2 [Compound 1904] | 0.00061 µM
COc1ccc2c(c1)C(=O)N(C[C@@]1(c3cc4nc(N(C)c5ccncc5)ccc4o3)NC(=O)NC1=O)C2 [Compound 2138] | 0.000881 µM
CCOC(=O)N1CCc2cc([C@]3(CN4Cc5ccc(OC)cc5C4=O)NC(=O)NC3=O)oc2C1 [Compound 317] | 0.00213 µM

Now from value to compound:

Ki | SMILES
0.00067 µM | COc1ccc2c(c1)C(=O)N(C[C@@]1(c3cc4cc(S(=O)(=O)NCCN(C)C)ccc4o3)NC(=O)NC1=O)C2 [Compound 2482]
0.00123 µM | COc1ccc2c(c1)C(=O)N(CC1(c3cc4cc(-c5cc(O)[nH]n5)ccc4o3)NC(=O)NC1=O)C2 (stereo not shown) [Compound 2223]
0.000806 µM | COc1ccc2c(c1)C(=O)N(C[C@@]1(c3cc4nc(-c5ccc6nccn6c5)ccc4o3)NC(=O)NC1=O)C2 [Compound 2150]
0.000355 µM | COc1ccc2c(c1)C(=O)N(C[C@@]1(c3cc4cc(-c5nnc[nH]5)ccc4o3)NC(=O)NC1=O)C2 [Compound 2184]
0.000568 µM | COc1ccc2c(c1)C(=O)N(C[C@@]1(c3cc4c(C(F)(F)F)nc(N)nc4o3)NC(=O)NC1=O)C2 [Compound 2305]
0.000443 µM | COc1ccc2c(c1)C(=O)N(C[C@@]1(c3cc4cc(CNC5CCCCC5)ccc4o3)NC(=O)NC1=O)C2 [Compound 2180]
0.000249 µM | CCC1(c2ccc3oc([C@]4(CN5Cc6ccc(OC)cc6C5=O)NC(=O)NC4=O)cc3c2)NC(=O)NC1=O (stereo partly shown) [Compound 2208]

Test system: TNF-α production from human whole blood
Test: Inhibition of TNF-α production from human whole blood (hWBA), LPS stimulated, ELISA
Format: cell-based
Conditions: Homo sapiens, 3.5 h, human whole blood diluted 1:1, LPS stimulated, 3.5 h, TNF-α by ELISA; read-out: hWBA (IC50)

SMILES | IC50
COc1ccc2c(c1F)C(=O)N(C[C@@]1(c3cc4nc(-c5cn[nH]c5)ccc4o3)NC(=O)NC1=O)C2 [Compound 2121] | 0.102 µM
COc1ccc2c(c1)C(=O)N(CC1(c3cc4cc(-c5cc(=O)[nH]c(N)n5)ccc4o3)NC(=O)NC1=O)C2 (stereo not shown) [Compound 2224] | 0.139 µM
COC(=O)[C@H](CCCCNC(=O)c1cc2cc([C@]3(CN4Cc5ccc(OC)cc5C4=O)NC(=O)NC3=O)oc2cc1F)NC(=O)CCCC[C@@H]1SCC2NC(=O)NC21 (stereo partly shown) [Compound 1282] | 0.407 µM
COc1ccc2c(c1)C(=O)N(C[C@@]1(c3cc4nc(N(C)c5ccncc5)ccc4o3)NC(=O)NC1=O)C2 [Compound 2138] | 0.524 µM

Now from value to compound:

IC50 | SMILES
0.242 µM | COc1ccc2c(c1)C(=O)N(CC1(c3cc4cc(-c5cc(O)[nH]n5)ccc4o3)NC(=O)NC1=O)C2 (stereo not shown) [Compound 2223]
0.828 µM | COc1ccc2c(c1)C(=O)N(C[C@@]1(c3cc4nc(-c5ccc6nccn6c5)ccc4o3)NC(=O)NC1=O)C2 [Compound 2150]
0.347 µM | COc1ccc2c(c1)C(=O)N(C[C@@]1(c3cc4cc(-c5nnc[nH]5)ccc4o3)NC(=O)NC1=O)C2 [Compound 2184]
0.617 µM | COc1ccc2c(c1)C(=O)N(C[C@@]1(c3cc4cc(CNC5CCCCC5)ccc4o3)NC(=O)NC1=O)C2 [Compound 2180]
0.22 µM | CCC1(c2ccc3oc([C@]4(CN5Cc6ccc(OC)cc6C5=O)NC(=O)NC4=O)cc3c2)NC(=O)NC1=O (stereo partly shown) [Compound 2208]

Same assay, conditions: Homo sapiens, LPS-stimulated human whole blood, TNF-α by ELISA; read-out: hWBA (IC50)

IC50 | SMILES
0.185 µM | COc1ccc2c(c1F)C(=O)N(C[C@@]1(c3cc4nc(N(c5cn[nH]c5)C5CCNCC5)ccc4o3)NC(=O)NC1=O)C2 [Compound 1724]
≥ 1000 µM | COc1ccc2c(c1)C(=O)N(C[C@@]1(c3cc4c(o3)CCN(C(=O)Nc3cccnc3)C4)NC(=O)NC1=O)C2 [Compound 321]
0.784 µM | COc1ccc2c(c1)C(=O)N(C[C@@]1(c3cc4cc(C(N)C(F)(F)F)ccc4o3)NC(=O)NC1=O)C2 (stereo partly shown) [Compound 311]
1.79 µM | COc1ccc2c(c1F)C(=O)N(C[C@@]1(c3ccco3)NC(=O)NC1=O)C2 [Compound 313]
0.132 µM | COc1ccc2c(c1F)C(=O)N(C[C@@]1(c3cc4nc(C(N)=O)ccc4o3)NC(=O)NC1=O)C2 [Compound 1904]
0.704 µM | CCOC(=O)N1CCc2cc([C@]3(CN4Cc5ccc(OC)cc5C4=O)NC(=O)NC3=O)oc2C1 [Compound 317]

SMILES | IC50
COc1ccc2c(c1)C(=O)N(C[C@@]1(c3cc4ncc(C(N)=O)cc4o3)NC(=O)NC1=O)C2 [Compound 1929] | 0.173 µM

Same assay, conditions: Homo sapiens, human whole blood diluted 1:1, LPS stimulated, TNF-α by ELISA; read-out: hWBA (IC50)

SMILES | IC50
COc1ccc2c(c1)C(=O)N(C[C@@]1(c3cc4cc(S(=O)(=O)NCCN(C)C)ccc4o3)NC(=O)NC1=O)C2 [Compound 2482] | 0.304 µM
COc1ccc2c(c1)C(=O)N(C[C@@]1(c3cc4c(o3)CCN(CC(N)=O)C4)NC(=O)NC1=O)C2 [Compound 2483] | 0.252 µM
COc1ccc2c(c1)C(=O)N(C[C@@]1(c3cc4c(C(F)(F)F)nc(N)nc4o3)NC(=O)NC1=O)C2 [Compound 2305] | 1.42 µM
COc1ccc2c(c1)C(=O)N(C[C@@]1(c3cc4ncc(C(N)=O)cc4o3)NC(=O)NC1=O)C2 [Compound 2459] | 0.173 µM
